According to PubChem BioAssay AID2060900 (Molecular Pharmacology Branch, DTP, NCI, 2025):

Test system: 521955-158-R2-J5-PDC complex spheroids, viability
Test: Anticancer human tumor 521955-158-R2-J5-PDC patient-derived pancreatic carcinoma cell line growth inhibition [RAS]
Details: for IC50: curve of first compound; for viability, T/C: stronger effect = lower value
In short: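 Multi-cell-type spheroids: tumor cells plus HUVEC endothelial cells and mesenchymal stem cells. RAS-pathway inhibitors were combined with targeted agents, each dosed in half-log steps down from clinical Cmax, or from 10 microM when Cmax was unknown.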

[1] = second compound 0.0316 µM, first compound 0.0316 µM
[2] = second compound 0.0316 µM, first compound 0.1 µM
[3] = second compound 0.0316 µM, first compound 0.316 µM
[4] = second compound 0.0316 µM, first compound 1 µM
[5] = second compound 0.1 µM, first compound 0.0316 µM
[6] = second compound 0.1 µM, first compound 0.1 µM
[7] = second compound 0.1 µM, first compound 0.316 µM
[8] = second compound 0.1 µM, first compound 1 µM
[9] = second compound 0.316 µM, first compound 0.0316 µM
[10] = second compound 0.316 µM, first compound 0.1 µM
[11] = second compound 0.316 µM, first compound 0.316 µM
[12] = second compound 0.316 µM, first compound 1 µM
[13] = second compound 1 µM, first compound 0.0316 µM
[14] = second compound 1 µM, first compound 0.1 µM
[15] = second compound 1 µM, first compound 0.316 µM
[16] = second compound 1 µM, first compound 1 µM
[17] = second compound 3.16 µM, first compound 0.0316 µM
[18] = second compound 3.16 µM, first compound 0.1 µM
[19] = second compound 3.16 µM, first compound 0.316 µM
[20] = second compound 3.16 µM, first compound 1 µM
[21] = second compound 10 µM, first compound 0.0316 µM
[22] = second compound 10 µM, first compound 0.1 µM
[23] = second compound 10 µM, first compound 0.316 µM
[24] = second compound 10 µM, first compound 1 µM
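Note: compound exposure lasted seven days before the viability read.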
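Throughout, for viability, T/C: spheroids also contain HUVEC endothelial cells and mesenchymal stem cells as stroma.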

SMILES: NC1c2ccccc2OC12CCN(c1cnc3c(N4CCCc5ncccc54)n[nH]c3n1)CC2 (centres undefined) + C#Cc1c(F)ccc2cc(O)cc(-c3ncc4c(N5CC6CCC(C5)N6)nc(OCC56CCCN5CC(F)C6)nc4c3F)c12
- IC50 (second compound 0.0316 µM): < 31.6 nM
- IC50 (second compound 0.1 µM): 35.2 nM
- IC50 (second compound 0.316 µM): < 31.6 nM
- IC50 (second compound 1 µM): < 31.6 nM
- IC50 (second compound 3.16 µM): < 31.6 nM
- IC50 (second compound 10 µM): < 31.6 nM
- viability, T/C [1]: 49.8%
- viability, T/C [2]: 38.6%
- viability, T/C [3]: 32.1%
- viability, T/C [4]: 19.2%
- viability, T/C (second compound 0.0316 µM, first compound 3.16 µM): 16.3%
- viability, T/C (second compound 0.0316 µM, first compound 10 µM): 9.96%
- viability, T/C [5]: 50.6%
- viability, T/C [6]: 42.4%
- viability, T/C [7]: 26.2%
- viability, T/C [8]: 16.9%
- viability, T/C (second compound 0.1 µM, first compound 3.16 µM): 14.2%
- viability, T/C (second compound 0.1 µM, first compound 10 µM): 10.4%
- viability, T/C [9]: 44%
- viability, T/C [10]: 35.5%
- viability, T/C [11]: 21.9%
- viability, T/C [12]: 12.9%
- viability, T/C (second compound 0.316 µM, first compound 3.16 µM): 12.2%
- viability, T/C (second compound 0.316 µM, first compound 10 µM): 7.43%
- viability, T/C [13]: 35%
- viability, T/C [14]: 31.7%
- viability, T/C [15]: 23.9%
- viability, T/C [16]: 13.1%
- viability, T/C (second compound 1 µM, first compound 3.16 µM): 12.5%
- viability, T/C (second compound 1 µM, first compound 10 µM): 8.41%
- viability, T/C [17]: 32.1%
- viability, T/C [18]: 25.3%
- viability, T/C [19]: 17.8%
- viability, T/C [20]: 11.1%
- viability, T/C (second compound 3.16 µM, first compound 3.16 µM): 5.56%
- viability, T/C (second compound 3.16 µM, first compound 10 µM): 3.9%
- viability, T/C [21]: 21.3%
- viability, T/C [22]: 16%
- viability, T/C [23]: 5.5%
- viability, T/C [24]: 4.22%
- viability, T/C (second compound 10 µM, first compound 3.16 µM): 3.21%
- viability, T/C (second compound 10 µM, first compound 10 µM): 1.47%

SMILES: Nc1ccn(C2OC(CO)C(O)C2(F)F)c(=O)n1 (centres undefined) + C#Cc1c(F)ccc2cc(O)cc(-c3ncc4c(N5CC6CCC(C5)N6)nc(OCC56CCCN5CC(F)C6)nc4c3F)c12
- IC50 (second compound 0.0316 µM): < 3.16 nM
- IC50 (second compound 0.1 µM): < 3.16 nM
- IC50 (second compound 0.316 µM): < 3.16 nM
- IC50 (second compound 1 µM): 3.68 nM
- IC50 (second compound 3.16 µM): < 3.16 nM
- IC50 (second compound 10 µM): < 3.16 nM
- viability, T/C (second compound 0.0316 µM, first compound 0.00316 µM): 48.8%
- viability, T/C (second compound 0.0316 µM, first compound 0.01 µM): 39.5%
- viability, T/C [1]: 32.6%
- viability, T/C [2]: 24.9%
- viability, T/C [3]: 24.1%
- viability, T/C [4]: 18.5%
- viability, T/C (second compound 0.1 µM, first compound 0.00316 µM): 44.5%
- viability, T/C (second compound 0.1 µM, first compound 0.01 µM): 44.9%
- viability, T/C [5]: 28.8%
- viability, T/C [6]: 20.9%
- viability, T/C [7]: 21%
- viability, T/C [8]: 15.4%
- viability, T/C (second compound 0.316 µM, first compound 0.00316 µM): 43.3%
- viability, T/C (second compound 0.316 µM, first compound 0.01 µM): 42.9%
- viability, T/C [9]: 28.8%
- viability, T/C [10]: 23.4%
- viability, T/C [11]: 17.4%
- viability, T/C [12]: 17.8%
- viability, T/C (second compound 1 µM, first compound 0.00316 µM): 52.4%
- viability, T/C (second compound 1 µM, first compound 0.01 µM): 34.6%
- viability, T/C [13]: 27.7%
- viability, T/C [14]: 16.4%
- viability, T/C [15]: 15.3%
- viability, T/C [16]: 14%
- viability, T/C (second compound 3.16 µM, first compound 0.00316 µM): 48.5%
- viability, T/C (second compound 3.16 µM, first compound 0.01 µM): 41.6%
- viability, T/C [17]: 27.5%
- viability, T/C [18]: 20.8%
- viability, T/C [19]: 15%
- viability, T/C [20]: 13%
- viability, T/C (second compound 10 µM, first compound 0.00316 µM): 35.9%
- viability, T/C (second compound 10 µM, first compound 0.01 µM): 32.7%
- viability, T/C [21]: 20.8%
- viability, T/C [22]: 20.4%
- viability, T/C [23]: 13.4%
- viability, T/C [24]: 9.08%
